Assay results: patent US9549917B2, “Heterocyclic-substituted benzofuran derivatives and methods of use thereof for the treatment of viral diseases” (priority 2011, dated 2017)

Columns and labels:
HCV replicon genotype 1a = experiment: HCV replicon assay, genotype 1a (cell ELISA for NS3/4A); format: cell-based; conditions: Hepatitis C virus, 96 h, read-out: 1a IC50 (nM)
Procedure: (§1) Measurement of inhibition by compounds was performed using the HCV replicon system. Several different replicons encoding different HCV genotypes or mutations were used. In addition, potency measurements were made using different formats of the replicon assay, including different ways of measurements and different plating formats. See Jan M. Vrolijk et al., A replicons-based bioassay for the measurement of interferons in patients with chronic hepatitis C, 110 J. V[…] 201 (2003); Steven S. Carroll et al., Inhibition of Hepatitis C Virus RNA Replication by 2′-Modified Nucleoside Analogs, 278(14) J. BIOLOGICAL CHEMISTRY 11979 (2003). However, the underlying principles are common to all of these determinations, and are outlined below.
(§2) Stable neomycin phosphotransferase encoding replicons-harboring cell lines were used, so all cell lines were maintained under G418 selection prior to the assay. Potency was determined using a cell ELISA assay with an antibody to the replicons encoded NS3/4a protease. See Caterina Trozzi et al., In Vitro Selection and Characterization of Hepatitis C Virus Serine Protease Variants Resistant to an Active-Site Peptide Inhibitor, 77(6) J. Virol. 3669 (2003). To initiate an assay, replicon cells were plated in the presence of a dilution series of test compound in the absence of G418. Typically, the assays were performed in a 96-well plate formate for manual operation, or a 384-well plate format for automated assay. Replicon cells and compound were incubated for 96 hours. At the end of the assay, cells were washed free of media and compound, and the cells were then lysed. RNA was quantified indirectly through detection of replicon-encoded NS3/4A protein levels, through an ELISA-based assay with an antibody specific for NS3/4A. IC50 determinations were calculated as a percentage of a DMSO control by fitting the data to a four-parameter fit function and the data obtained is provided in the table below.
(§3) Data for selected compounds of the present invention was obtained for genotypes 1a and 1b using this method and is provided in the table below: […]

HCV replicon genotype 1b = experiment: HCV replicon assay, genotype 1b (cell ELISA for NS3/4A); format: cell-based; conditions: Hepatitis C virus, 96 h, read-out: 1b IC50 (nM)
Procedure: as §1, §2, §3

| SMILES | IC50 (HCV replicon genotype 1a) [nM] | IC50 (HCV replicon genotype 1b) [nM] |
| --- | --- | --- |
| CNC(=O)c1c(-c2ccc(F)cc2)oc2cc(N(C)S(C)(=O)=O)c(-c3cnnc(-c4cc5c(F)cccc5n4CCOC)c3)cc12 [Compound 279] | 2.5 | 3.2 |
| CNC(=O)c1c(-c2ccc(F)cc2)oc2cc(N(C)S(C)(=O)=O)c(-c3cnnc(-c4nc5ccccc5s4)c3)cc12 [Compound 287] | 3.2 | 5.1 |
| CNC(=O)c1c(-c2ccc(F)cc2)oc2cc(N(C)S(C)(=O)=O)c(-c3cnnc(N4Cc5cccc(F)c5C4)c3)cc12 [Compound 280] | 1.2 | 1.4 |
| CNC(=O)c1c(-c2ccc(F)cc2)oc2cc(N(C)S(C)(=O)=O)c(-c3cc(-c4cc5c(F)cccc5n4CCOC)cnn3)cc12 [Compound 278] | 37 | 14 |
| CNC(=O)c1c(-c2ccc(F)cc2)oc2cc(N(C)S(C)(=O)=O)c(-c3ccc(OC)c(-c4cc5ncccc5[nH]4)n3)cc12 [Compound 211] | 8.8 | 2.5 |
| CNC(=O)c1c(-c2ccc(F)cc2)oc2cc(N(C)S(C)(=O)=O)c(-c3cnc(OC)c(-c4nc5c(F)cccc5o4)c3)cc12 [Compound 1, 5-(5-(4-fluorobenzo[d]oxazol-2-yl)-6-methoxypyridin-3-yl)-2-(4-fluorophenyl)-N-methyl-6-(N-methylmethylsulfonamido)benzofuran-3-carboxamide] | 0.9 | 0.6 |
| CNC(=O)c1c(-c2ccc(F)cc2)oc2cc(N(C)S(C)(=O)=O)c(-c3cc(-c4nc5c(F)cccc5o4)c(F)cn3)cc12 [Compound 13] | 0.7 | 1.4 |
| CNC(=O)c1c(-c2ccc(F)cc2)oc2cc(N(C)S(C)(=O)=O)c(-c3cc(-c4cc5ccccc5[nH]4)ncn3)cc12 [Compound 108, 5-(6-(1H-indol-2-yl)pyrimidin-4-yl)-2-(4-fluorophenyl)-N-methyl-6-(N-methylmethylsulfonamido)benzofuran-3-carboxamide] | 0.7 | 1.2 |
| CNC(=O)c1c(-c2ccc(F)cc2)oc2cc(N(C)S(C)(=O)=O)c(-c3cncc(-c4ccc5cc(C(F)(F)F)cnc5n4)c3)cc12 [Compound 180] | 5.4 | 2.3 |
| CNC(=O)c1c(-c2ccc(F)cc2)oc2cc(N(C)S(C)(=O)=O)c(-c3ccnc(-c4nc5c(F)cccc5o4)c3)cc12 [Compound 9] | 0.6 | 1.3 |
| CNC(=O)c1c(-c2ccc(F)cc2)oc2cc(N(C)S(C)(=O)=O)c(-c3ccc(OC)c(-c4cc5cccc(C#N)c5[nH]4)n3)cc12 [Compound 208] | 27 | 7.2 |
| CNC(=O)c1c(-c2ccc(F)cc2)oc2cc(N(C)S(C)(=O)=O)c(-c3cc(-c4cc5c(F)cccc5[nH]4)ncn3)cc12 [Compound 119] | 0.7 | 1.5 |
| CNC(=O)c1c(-c2ccc(F)cc2)oc2cc(N(C)S(C)(=O)=O)c(-c3cnnc(-c4cc5cccnc5n4C)c3)cc12 [Compound 284] | 6 | 2.7 |
| CNC(=O)c1c(-c2ccc(F)cc2)oc2cc(N(C)S(C)(=O)=O)c(-c3cncc(-c4nc5c(s4)CCCC5)c3)cc12 [Compound 82] | 0.8 | 1.1 |
| CNC(=O)c1c(-c2ccc(F)cc2)oc2cc(N(C)S(C)(=O)=O)c(-c3cc(-c4cc5c(C#N)cccc5[nH]4)cnn3)cc12 [Compound 230] | 1.4 | 1.9 |
| CNC(=O)c1c(-c2ccc(F)cc2)oc2cc(N(C)S(C)(=O)=O)c(-c3c[nH]c(=O)c(-c4nc5c(F)cccc5o4)c3)cc12 [Compound 159] | 0.8 | 1.3 |
| CNC(=O)c1c(-c2ccc(F)cc2)oc2cc(N(C)S(C)(=O)=O)c(-c3cncc(-c4nc5c(F)cccc5o4)c3)cc12 [Compound 2] | 0.3 | 0.8 |
| CNC(=O)c1c(-c2ccc(F)cc2)oc2cc(N(CCCF)S(C)(=O)=O)c(-c3cncc(-c4cc5ccccc5[nH]4)c3)cc12 [Compound 244] | 2.7 | 4.7 |
| CNC(=O)c1c(-c2ccc(F)cc2)oc2cc(N(C)S(C)(=O)=O)c(-c3cnnc(-c4cc5c(C#N)cccc5[nH]4)c3)cc12 [Compound 260] | 0.7 | 1.1 |
